The results in this text go back to EP3431088A1, “MNTBAP FOR USE IN INDUCING A TRANSIENT IMMUNE TOLERANCE” (priority 2017, dated 2019).

In assay [1] the test system is specific T-cell immune responses against OVA peptides. Put plainly: OVA peptides subcutaneous immunization, IFN-γ ELISPOT on spleen cells. It counts as in vivo, C57BL/6 mice. To be noted: 80 mg/kg IP daily 5 days, vs PBS + OVA / IFA. On the procedure:
(§1) MnTBAP (Calbiochem, San Diego, USA or Enzo Life Sciences, Farmingdale, USA) is dissolved in 75 mM NaOH to constitute a 20 mM stock solution. MnTBAP is dissolved in the complete medium, used for in vitro treatment, containing RPMI-1640 supplemented with 10% heat-inactivated fetal calf serum, 100 U/ml penicillin/streptomycin, 2 mM glutamax and 50 µM β-mercaptoethanol β-ME). Hypertonic medium, used to block clathrin dependent endocytosis, is complete medium supplemented with 0.45 M sucrose. For in vivo treatment, the stock solution is diluted with PBS and administered at 80 mg/kg intraperitoneally daily during five days. Control animals are injected with equivalent volume of PBS.
A mixture of chicken egg albumin (OVA) peptides is administrated subcutaneously in mice anesthetized by intraperitoneal injection of xylazine (10 mg/kg) and ketamine (100 mg/kg). OVA257-264 (SEQ ID NO: 3; SIINFEKL) (InvivoGen, San Diego, USA) is a class I (Kb)-restricted peptide epitope of OVA presented by the class I major histocompatibility complex molecule (CMH) H-2Kb. OVA323-339 (SEQ ID NO: 4; ISQAVHAAHAEINEAGR) (AnaSpec, San Jose, USA) is an H-2b-restricted OVA class II epitope. 100 µg of each peptide complexed with the same volume of incomplete Freund's adjuvant (IFA) (Sigma-Aldrich) are administrated. Controls are injected with PBS-IFA complexes. OVA peptides- and PBS-IFA complexes are injected two hours or 21 days post first intraperitoneal injection of MnTBAP (or PBS). Eight days post OVA peptides injection, mice are sacrificed and spleens harvested to analyze OVA-specific T cell response.
(§2) Spleens are harvested to analyze the cellular immune anti-transgene response by T-cell cytokine response assay. Multiscreen-HA Assay System 96-well Filtration plates (Merck) are coated overnight with 2.5 µg/ml of anti-mouse IFN-γ purified mAb (eBiosciences) at 4°C, washed, and then blocked with RPMI 1640 medium (Life Technologies, Saint-Aubin, France) supplemented with 10% heat inactivated fetal bovine serum (FCS), 100U/ml penicillin/streptomycin (Thermo Fisher Scientific) and 2mM GlutaMAXTM-I (Life technologies) for 2 hours at 37°C. Plates are washed three times with RPMI 1640 medium without FCS. Splenocytes are added in duplicate to the IFN-γ-coated well (1 or 0.5 x 10^6 cells/well) and cultured in presence of Dby or Uty peptide (Genepep, Montpellier, France) at 2 µM or in presence of OVA peptides at 10 µg/ml. As a positive control, cells are stimulated with Concanavalin A (Sigma-Aldrich) at 1 µg/ml in each test. […] Spots are counted using an AID reader (Ceipheid Benelux, Louven, Belgium). Spot forming units (SFU) per million cells for each mouse are calculated as the average value of duplicate measures after subtraction of background values obtained with in vitro unstimulated splenocytes.

Assay [2] relates to transgene-specific CD8^+ and CD4^+ T-cell responses. Briefly: IM rAAV gene transfer: transgene-specific T-cell responses by IFN-γ ELISPOT. It counts as in vivo, C57BL/6 mice. To be noted: vs PBS. On the procedure:
as §1
Intramuscular (IM) injection: Two hours post first intraperitoneal (IP) injection of MnTBAP, mice are anesthetized by IP injection of xylazine (10 mg/kg) and ketamine (100 mg/kg) and 25 µl of a rAAV2/1 CMV SGCA HY viral preparation containing 2.5.10^9 vg is injected in the left tibialis anterior muscle (TA). Controls are injected with PBS. […] Spleens are harvested to analyze transgene-specific T cell response.
as §2, with “FCS.” for “FCS. Splenocytes are added in duplicate to the IFN-γ-coated well (1 or 0.5 x 10^6 cells/well) and cultured in presence of Dby or Uty peptide (Genepep, Montpellier, France) at 2 µM or in presence of OVA peptides at 10 µg/ml. As a positive control, cells are stimulated with Concanavalin A (Sigma-Aldrich) at 1 µg/ml in each test.”

Assay [3] has as its system splenic T-lymphocyte subsets. Put plainly: Absolute numbers of splenic T-lymphocyte subsets by flow cytometry. The assay is classed as in vivo, mice. To be noted: 15 days post first injection, after gene transfer, vs PBS. On the procedure: as §1
Intramuscular (IM) injection: Two hours post first intraperitoneal (IP) injection of MnTBAP, mice are anesthetized by IP injection of xylazine (10 mg/kg) and ketamine (100 mg/kg) and 25 µl of a rAAV2/1 CMV SGCA HY viral preparation containing 2.5.10^9 vg is injected in the left tibialis anterior muscle (TA). Controls are injected with PBS. Mice are sacrificed 15 days after vector injection and the injected muscles are harvested to perform histologic analysis. Spleens are harvested to analyze transgene-specific T cell response.
After mechanic disruption of the spleen, erythrocytes are eliminated by hypotonic shock with ammonium chloride potassium (ACK) lysing buffer. […]

The mark [4] stands for this setting: OVA/IFA immunization 21 days after first injection.
Where [5] appears, read: OVA/IFA immunization two hours after first injection.
[6] abbreviates: eight days post vector injection.

For `O=C(O)c1ccc(-c2c3nc(c(-c4ccc(C(=O)O)cc4)c4ccc([n-]4)c(-c4ccc(C(=O)O)cc4)c4nc(c(-c5ccc(C(=O)O)cc5)c5ccc2[n-]5)C=C4)C=C3)cc1.[Mn+3]` [MnTBAP, manganese [III] tetrakis (4-benzoic acid) porphyrin], in assay [1] (setting [4]), the “IFN-γ production by OVA-specific CD4^+ T cells” value is recorded as “produce low levels of IFN-γ with no significant differences” and the “IFN-γ production by OVA-specific CD8^+ T cells” value was “produce IFN-γ with no significant differences”. Besides, in assay [1] (setting [5]), the “IFN-γ production by OVA-specific CD4^+ T cells” value was “not able to produce IFN-γ” and the “IFN-γ production by OVA-specific CD8^+ T cells” value was “not able to produce IFN-γ”. For the same compound, in assay [2] (setting [6]), the “IFN-γ response of transgene specific CD4^+ T cells” value is “significantly decreased” and the “IFN-γ response of transgene specific CD8^+ T cells” value is listed as “no significant differences”. The “IFN-γ response of transgene specific CD8^+ T cells” value in assay [2] (fifteen days post vector injection) was “significantly decreased”. Also, in assay [3], the “absolute number of splenic CD4^+ T cells” value was “significant decrease in the absolute number” and the “absolute number of splenic CD8^+ T cells” value is “significant decrease in the absolute number”.
